# Reference: patent publication US20040191169A1, “Methods of protection from toxicity of alpha emitting elements during radioimmunotherapy” (priority 2003, published 2004)
# Assays:
# [1] = Competitive metal blockade with bismuth subnitrate: renal ^213Bi and ^221Fr activity after ^225Ac labeled HuM195 injection; format: in vivo, mice
# Experimental: (§1) The mice were anesthetized and then injected intravenously in the retro-orbital venous plexus with 0.5 μCi of either ^225Ac labeled HuM195 for chelation, diuresis and competitive metal blockade experiments or of ^225Ac labeled SJ25C1 for tumor burden experiments. The injected volume was 100 μl. In order to detect adequate numbers of disintegrations in tissues by use of the gamma-counter, the injected doses of ^225Ac nanogenerator, i.e., ˜30 μCi/kg, are much higher than the doses for human clinical trials with these adjuvants.
# Mice (5 per group) were injected i.p. with 200 μl of 1% bismuth subnitrate (BSN; Sigma, St. Louis, Mo.) suspension (100 mg/kg) or an equal volume of saline (controls) 4 hours before ^225Ac nanogenerator injection. These animals were sacrificed at 6 hours post-injection with the ^225Ac nanogenerator. Alternatively, mice were injected i.p. with 200 μl of 1% BSN suspension, 4 hours before and 8 and 20 hours after ^225Ac nanogenerator injection (n=5) or an equal volume of saline (n=5). These animals were sacrificed 24 hours after ^225Ac nanogenerator injection. The mean % ID/g of ^225Ac, ^221Fr and ^213Bi in blood and kidneys at sacrifice-time was calculated for each experimental group.
# [2] = Diuretic therapy, alone or combined with DMPS: renal ^221Fr and ^213Bi activity after ^225Ac labeled HuM195 injection; format: in vivo, mice; settings: diuretic alone i.p.; 24 hours post-injection
# Experimental: as §1
# Mice were randomized to furosemide treatment, chlorthiazide (CTZ) treatment or no treatment(control)groups (5 animals per group). Furosemide and CTZ were administered intraperitoneally (i.p.). The loading doses of furosemide and CTZ were 250 mg/kg and 750 mg/kg respectively, administered one hour before ^225Ac nanogeneratorinjection. The maintenance doses were 100 mg/kg and 300 mg/kg, respectively, administered 12 hours and 24 hours after the loading dose. The controls were injected with an equal volume of saline (vehicle).
# Alternatively, mice received DMPS (1.2 mg/ml in drinking water) and either furosemide or CTZ i.p using the same dose schedule as above. The controls received regular drinking water and were injected with an equal volume of saline. The animals were sacrificed at 24 hours post-injection with the labeled antibody and the mean activity (% ID/g) of ^225Ac, ^221Fr and ^213Bi in blood and kidneys was calculated for each experimental group, as described above.
# [3] = Tumor burden experiment: ^213Bi activity in kidneys and femurs after ^225Ac labeled SJ25C1, disseminated human Daudi lymphoma; format: in vivo, SCID mice
# Experimental: Disseminated human Daudi lymphoma (84) treated with ^225Ac labeled anti-CD19, was used as the model system. SCID mice, 10-12 weeks old, were randomized to “low tumor burden” or 7 days growth of tumor, “high tumor burden” or 30 days growth of tumor or “high tumor burden+DMPS” group or 30 days growth of tumor and treated with 1.2 mg/ml DMPS in drinking water, starting one day before injection with ^225Ac nanogenerator. All mice were injected intravenously with 5×10^6 Daudi lymphoma cells in 0.1 ml phosphate buffered saline (PBS). The “low burden” animals were injected with the tumor cells 23 days after the “high burden” ones. The animals were checked daily for the onset of hind-leg paralysis. 30 days after injection of tumor cells in the “high burden” animals and 7 days after injection for the “low burden” group, all animals were injected retro-orbitally with 0.5 μCi of ^225Ac labeled SJ25C1 in 100 μl.
# The animals (5 per group) were sacrificed at 24 hours post-injection and the mean ^225Ac, ^221Fr and ^213Bi activity (% ID/g) in blood, femurs and kidneys was calculated for each experimental group. The % of human-CD20 positive cells in the femoral bone marrow was estimated in one representative animal from the “high and low burden” groups by flow cytometric staining with phycoerythrin (PE)-conjugated anti-human CD20 (BD, San Jose, Calif.) and compared to that of a non tumor-bearing mouse of the same strain.
# [4] = cited from earlier work
# [5] = Free metal scavenging with DMPS or DMSA: tissue ^213Bi and ^221Fr activity after ^225Ac labeled HuM195 injection; format: in vivo, mice; settings: for renal ^213Bi activity: chelator in drinking water, mean (SE); for renal ^221Fr activity versus untreated controls: at either 6 hours or 72 hours post-injection
# Experimental: as §1
# Animals received either 2,3-dimercapto-1-propanesulfonic acid (DMPS; Sigma, St. Louis, Mo.) or meso-2,3-dimercaptosuccinic acid (DMSA; Sigma, St. Louis, Mo.) in drinking water (1.2 mg/ml and 1.5 mg/ml, respectively), starting one day before injection with ^225Ac nanogenerator and continued until the animals were sacrificed. The control animals received regular drinking water. Animals (n=5 per group) were sacrificed at 6 and 72 hours post-injection by carbon-dioxide asphyxiation.
# Samples of blood taken by cardiac puncture, of kidneys, of liver and of small intestine were removed. The organs were washed in distilled water, blotted dry on gauze, weighed, and the activity of ^221Fr (185-250 keV window) and ^213Bi (360-480 keV window) was measured using a gamma counter (COBRA II, Packard Instrument Company, Meriden, Conn.). Samples of the injectate (100 μl) were used as decay correction standards. Adjustment was made for the small percentage of bismuth activity that counted in the francium activity window. Percentage injected dose of ^225Ac, ^221Fr and ^213Bi per gram of tissue weight (% ID/g) was calculated for each animal at the time of sacrifice, using the equation (78):
# A2(0)=[A2−A2(eq)·(e^−λ2t−e^−λ1t)]·e^λ2t
# where λ1 and λ2 are the decay constants of Ac and Bi, respectively. The mean % ID/g was determined for each experimental group.
# [6] = In vivo biodistribution of [Ac]Hum195 at 24 hours in DMPS-treated and untreated monkeys; set-up: species or system cynomolgus monkeys; settings: one treated versus one untreated monkey, DMPS in water 24 hours plus one i.v. dose 90 min before sacrifice
# Experimental: Two cynomolgus monkeys weighing about 7 kg were injected with 25 μCi of Ac-225 nanogenerators on HuM195 antibodies. One monkey received water and the other received DMPS in water for 24 hours and one dose of DMPS intravenously 90 min before sacrifice. At 24 hours the two monkeys were sacrificed and the kidneys examined for Bi-213 daughters. A 70% reduction in Bi-213 in the kidneys of the treated monkey was found (FIG. 7).
# CD33 antigen = CD33 antigen (Homo sapiens, UniProt P20138); settings: on the order of; cited from earlier work
# Chain of CD33 antigen (P20138 18-364): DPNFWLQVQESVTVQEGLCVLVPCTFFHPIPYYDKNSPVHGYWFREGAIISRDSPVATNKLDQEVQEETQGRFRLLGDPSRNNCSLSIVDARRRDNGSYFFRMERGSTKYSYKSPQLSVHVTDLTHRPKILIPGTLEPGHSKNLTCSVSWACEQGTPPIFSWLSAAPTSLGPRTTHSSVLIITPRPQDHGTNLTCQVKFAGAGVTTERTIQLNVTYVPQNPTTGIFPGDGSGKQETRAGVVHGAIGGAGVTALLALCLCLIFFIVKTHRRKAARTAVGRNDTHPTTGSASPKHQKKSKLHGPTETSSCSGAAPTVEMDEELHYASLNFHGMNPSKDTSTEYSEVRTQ
Molecule,24 hour renal ^213Bi activity [2],24 hour renal ^221Fr activity [2],extent of non-protein sulfhydryl formation in human plasma [4],mean blood ^213Bi activity ([5]; 6 hours post-injection),renal ^213Bi activity ([5]; 6 hours post-injection),mean blood ^213Bi activity ([5]; 72 hours post-injection),renal ^213Bi activity ([5]; 72 hours post-injection),renal ^221Fr activity versus untreated controls [5],further results
"O=[N+]([O-])[O-].O=[N+]([O-])[O-].O=[N+]([O-])[O-].O=[N+]([O-])[O-].[Bi+3].[Bi+3].[Bi+3].[Bi+3].[Bi+3].[O-2].[OH-].[OH-].[OH-].[OH-].[OH-].[OH-].[OH-].[OH-].[OH-] [BSN, bismuth subnitrate]",–,–,–,–,–,–,–,–,"renal ^213Bi activity ([1]; 6 hours post-injection, BSN 100 mg/kg i.p. 4 hours before): 46.1±1.4 % ID/g; renal ^213Bi activity ([1]; 24 hours post-injection, BSN i.p. 4 hours before and 8 and 20 hours after): 48.2±0.6 % ID/g; renal ^221Fr activity ([1]; at either time-point (6 hours, 24 hours)): unaltered"
"NS(=O)(=O)c1cc2c(cc1Cl)N=CNS2(=O)=O [CTZ, chlorthiazide]",18.6±1.6 % ID/g,9.7±0.4 % ID/g,–,–,–,–,–,–,–
"O=S(=O)(O)CC(S)CS (stereo not shown) [DMPS, 2,3-dimercapto-1-propanesulfonic acid]",–,–,37%,9.2±0.5 % ID/g,38.6±5.5 % ID/g,5.5±0.1 % ID/g,21.7±2.1 % ID/g,not significantly different,"kidney to femur activity ratio for ^213Bi ([3]; DMPS treated animals bearing the target tumor): significantly lower; renal ^213Bi activity ([3]; high tumor burden + DMPS 1.2 mg/ml in drinking water, 24 hours post-injection): 16.7±2.7 % ID/g; femur ^213Bi activity ([3]; high tumor burden + DMPS, 24 hours post-injection): 4.8±0.6 % ID/g; relative effectiveness in reducing the renal ^213Bi activity ([5]; comparison between chelators): significantly more effective than DMSA; reduction in Bi-213 in the kidneys [6]: 70%"
"O=C(O)[C@@H](S)[C@@H](S)C(=O)O [DMSA, meso-2,3-dimercaptosuccinic acid]",–,–,8%,5.8±0.5 % ID/g,66.0±1.9 % ID/g,4.8±0.6 % ID/g,41.4±7.3 % ID/g,not significantly different,–
NS(=O)(=O)c1cc(C(=O)O)c(NCc2ccco2)cc1Cl [furosemide],18.3±0.6 % ID/g,11.8±0.4 % ID/g,–,–,–,–,–,–,–
HuM195: humanized anti-CD33 IgG1 monoclonal antibody,–,–,–,–,–,–,–,–,affinity (CD33 antigen): 10^−9 to 10^−10 M
